We go through two molecules from US7906546B2, “Tetrahydrocarbazoles and derivatives” (Hoffmann-La Roche Inc., priority 2004, dated 2011).

Test [1] deals with T1, human LXRα (Homo sapiens, UniProt Q13133).
T1 construct: human LXRα (aa 164 to 447); made in house; host or cells: E. coli BL21(pLysS)
T1 sequence (Q13133 164-447): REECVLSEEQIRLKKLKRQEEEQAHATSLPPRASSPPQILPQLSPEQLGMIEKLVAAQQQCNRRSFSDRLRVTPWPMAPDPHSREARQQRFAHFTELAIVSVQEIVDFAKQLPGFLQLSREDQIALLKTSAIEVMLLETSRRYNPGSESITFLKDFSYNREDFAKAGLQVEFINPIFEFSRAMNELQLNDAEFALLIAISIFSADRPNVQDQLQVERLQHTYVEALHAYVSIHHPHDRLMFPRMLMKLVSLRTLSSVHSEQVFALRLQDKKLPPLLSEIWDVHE
The test is described as follows: Radioligand binding assay (scintillation proximity), LXRalpha. The note with it: GST-LXRα-LBD on SPA beads, radioligand displacement. As to the method: (§1) Mammalian expression vectors were constructed to express full-length human LXRα and LXRβ. […] To accomplish this, the portions of the sequences encoding the LBDs were amplified from full-length clones by PCR and then subcloned into the plasmid vectors.
(§2) Induction, expression, and purification of GST-LBD fusion proteins were performed in E. coli strain BL21(pLysS) cells by standard methods (Ref: Current Protocols in Molecular Biology, Wiley Press, edited by Ausubel et al).
(§3) LXRα and LXRβ receptor binding were assayed in buffer consisting of 50 mM HEPES, pH 7.4, 10 mM NaCl, 5 mM MgCl2. For each 96-well reaction, 500 ng of GST-LXRα-LBD or 700 ng of GST-LXRβ-LBD fusion proteins were bound to 80 μg or 40 μg SPA beads (Pharmacia Amersham) respectively, in a final volume of 50 μl by shaking. The resulting slurry was incubated for 1 h at RT and centrifuged for 2 min at 1300×g. The supernatant containing unbound protein was removed, and the semi-dry pellet containing the receptor-coated beads was re-suspended in 50 μl of buffer. […] All binding assays were performed in 96-well plates and the amount of bound ligand was measured on a Packard TopCount using OptiPlates (Packard). […]
Background: In a scintillation proximity assay essentially only radioactivity close to the scintillant gives light.

The target of test [2] is T2, human LXRβ (Homo sapiens, UniProt P55055).
T2 construct: human LXRβ (aa 155 to 460); made in house; host or cells: E. coli BL21(pLysS)
T2 sequence (P55055 155-460): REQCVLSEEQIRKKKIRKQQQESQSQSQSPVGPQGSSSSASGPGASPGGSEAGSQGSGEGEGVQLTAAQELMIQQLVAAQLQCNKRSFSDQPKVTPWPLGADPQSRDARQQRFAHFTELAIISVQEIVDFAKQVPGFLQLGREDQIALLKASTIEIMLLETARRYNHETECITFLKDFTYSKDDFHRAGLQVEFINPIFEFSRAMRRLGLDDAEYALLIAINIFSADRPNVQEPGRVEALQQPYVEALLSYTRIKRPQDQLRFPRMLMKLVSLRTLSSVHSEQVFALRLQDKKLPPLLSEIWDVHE
Kind of test: Radioligand binding assay (scintillation proximity), LXRbeta. As to conditions: GST-LXRβ-LBD on SPA beads, radioligand displacement. The protocol: as §1, §2, §3

In the case of `COC(=O)[C@@](C)([C@H]1CCc2c([nH]c3ccc(Cl)cc23)C1)S(=O)(=O)c1ccccc1` (racemic) [(RS,SR)-2-benzenesulfonyl-2-(6-chloro-2,3,4,9-tetrahydro-1H-carbazol-2-yl)-propionic acid methyl ester], the IC50 turned out to be 1600 nM in test [1] and 270 nM in test [2].

In the case of `Cc1nnc([C@@](F)([C@@H]2Cc3[nH]c4ccc(Cl)cc4c3C2)S(=O)(=O)c2cccc(N(C)C)c2)o1` (racemic) [(RS, SR) {3-[(7-chloro-1,2,3,4-tetrahydro-cyclopenta[b]indol-2-yl)-fluoro-(5-methyl-[1,3,4]oxadiazol-2-yl)-methanesulfonyl]-phenyl}-dimethyl-amine], the IC50 in test [1] amounted to 43 nM; in test [2] it was 6 nM.

A word on the IC50: it is the midpoint of a concentration-inhibition curve.
